Data published in patent publication US6410557B1, “Dry skin remedies” (Daiichi Pharmaceutical Col, Ltd., priority 1999, dated 2002).
Like-named read-outs stand apart in the source and are kept apart here.

Legend:
Rat Foot Skin = assay: Promoting action on the secretion of sweat in rat foot skin (starch-iodine reaction); type: in vivo
Method: A pharmacological activity test was carried out using 6 male Wister rats (body weight 199-238 g) in one group. After fasting for 1 day, rats were anesthetized by 50 mg/kg of sodium pentobarbital which was intraperitoneally administered, and an endotracheal tube was inserted to maintain the airway.
The soles of the right and left feet were cleaned with 70% ethanol, then 95% ethanol containing 2% of iodine was applied and allowed to dry. Castor oil containing 50% corn starch was coated to the soles of both feet, 5 minutes later a solvent alone or 1,3,10, and 30 mg/kg of cis-2-methylspiro(1,3-oxathiolane-5,3′)quinuclidine hydrochloride were administered intravenously.

Humans = system: Humans
Method: A multi-facility double blind comparison study was carried out for examination of perspiration promoting action on human, by preparing capsules containing 30 or 60 mg of cis-2-methylspiro(1,3-oxathiolane-5,3′)quinuclidine hydrochloride. 75 Americans (69 White, 1 Black, and 5 Hispanic subjects) were divided into 3 groups randomly. Each group received either one placebo capsule (0 mg), one 30 mg capsule, or one 60 mg capsule orally administered three times a day for 6 weeks. The increase of perspiration in each group was tested.

[1] = 30 mg capsule orally × 3/day for 6 weeks, 25 subjects
[2] = 60 mg capsule orally × 3/day for 6 weeks, 27 subjects

Row | SMILES | effect on the sweat secretion promoting activity of the quinuclidine hydrochloride (Rat Foot Skin; rat soles of feet) | sweat secretion on the soles of both feet (number of colored points, degree of perspiration) (Rat Foot Skin; anesthetized male Wister rats, 1, 3, 10 and 30 mg/kg intravenously, FIG. 1) | Number of Subjects Showing perspiration (Humans; [1]) | Number of Subjects Showing perspiration (%) (Humans; [1]) | Number of Subjects Showing perspiration (Humans; [2]) | Number of Subjects Showing perspiration (%) (Humans; [2]) | sweat secretion of human (Humans; capsules, oral, three times a day for 6 weeks)
1 | CN1[C@@H]2CC[C@H]1C[C@@H](OC(=O)C(CO)c1ccccc1)C2 (stereo partly shown) [atropine, reference compound] | blocks this activity | – | – | – | – | – | –
2 | CC1OC2(CS1)CN1CCC2CC1.Cl (stereo not drawn) [cis-2-methylspiro(1,3-oxathiolane-5,3′)quinuclidine hydrochloride] | – | promoted depending on the dose level | 4 | 16.0% | 13 | 48.1% | remarkably promoted
